The values below come from US20160220590A1, “Formulations and Dosage Forms of Oxidized Phospholipids” (Vascular Biogenics Ltd., priority 2011, published 2016).

A short description of data set [1]: Aqueous solubility of VB-201. It counts as physicochemical. The note with it: at each tested pH: 0.1 M HCl (pH 1), 50 mM phosphate buffers (pH 5 and 7). As for the experimental part:
The aqueous solubility of VB-201 was determined by suspending VB-201 in aqueous solutions of 0.1 M HCl (pH 1) or in 50 mM phosphate buffers (pH 5 and 7). After initial hand mixing, the preparations were further mixed by vortexing and bath sonication to try to bring about dissolution of the drug. Optical microscopy was used to examine for the presence of undissolved material. […] Thus, VB-201′ is relatively water-soluble.

Data set [2] can be described thus: Stability of VB-201 in Lauroglycol FCC. The class given is physicochemical. The settings on record: over the course of 66 days; data not shown. From the text:
(§1) VB-201 was also found to be stable in Lauroglycol FCC over the course of 66 days (data not shown).

Data set [3] in a line: Solubility of VB-201 in molten PEG6000. The class given is physicochemical. The settings on record: 65° C. to 105° C., 30 hours; no detectable VB-201. The protocol:
Nine pieces of caked, non-ground VB-201 were submerged in molten PEG6000 at 65° C. and stirred slowly using a paddle mixer. The mix was held for approximately two hours at this temperature, examined visually for the dissolution state of the VB-201, and three samples of the liquid PEG6000 were then taken for analysis. The temperature was then raised by 10° C. and the process was repeated. The process was repeated in 10° C. steps until the mix reached a final temperature of 105° C. The entire process lasted 30 hours.
After 30 hours and at a temperature of 105° C., the PEG6000 had slowly turned lightly yellow (normal for prolonged heating of PEG6000 in air), yet there was no significant visible dissolution of VB-201 or reduction in size of the VB-201 pieces. After taking the final analytical samples the VB-201 pieces were removed from the melt, dried from PEG6000, and weighed.

Data set [4] can be described thus: Pharmacokinetic study, single oral dose of 40 mg VB-201 to human subjects. It counts as in vivo. The note with it: single oral dose 40 mg VB-201, in all subjects. As for the experimental part:
Pharmacokinetic studies were performed using two different VB-201 formulations (formulation 10 of Example 13 and formulation 4 of Example 11). Single oral doses of 40 mg VB-201 were administered to 26 human subjects for each formulation, and the VB-201 plasma concentrations were measured for a period of 144 hours after dosing for each subject.

For data set [5] the following is noted: oral, daily dosages of 80 mg VB-201 per day or less; cited from earlier work.
The nature of data set [6]: Solubility of VB-201 in Lauroglycol FCC. The class given is physicochemical. The settings on record: in Lauroglycol FCC (propylene glycol laurate).
From the text: as §1

Molecules are shown by their SMILES.

As to `CCCCCCCCCCCCCCCCOCC(COP(=O)([O-])OCC[N+](C)(C)C)OCCCCC(=O)O` (stereo not drawn) [VB-201, 1-hexadecyl-2-(4′-carboxybutyl)-glycero-3-phosphocholine], in data set [1], the “aqueous solubility of VB-201” value is > 225 mg/gram. The “stability in Lauroglycol FCC” value in data set [2] is “stable”. Besides, the “VB-201 concentration in molten PEG6000” value in data set [3] is listed as < 0.5 mg/gram. The “time VB-201 plasma concentrations were above the assay limit of quantification” value in data set [4] was “at least 96 hours”. Also, the safety and tolerability entry in data set [5] is “safe, well-tolerated”. For the same compound, in data set [6], the “solubility of VB-201 in Lauroglycol FCC” value is given as “at least 255 mg per gram”.
